Key:
Experiment in all cases: Indoor herbicide activity determination, Seed Treatment; pre-emergence (soil spray)
Format in all cases: in vivo
[1] = system: Aegilops tauschii; conditions: read-out: Herbicidal activities (inhibition rate) Aegilops tauschii; for inhibition at 120 g/ha: 120 g a.i./ha; for inhibition at 60 g/ha: 60 g a.i./ha
How it was run: (§1)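 Sow seeds into soil-filled 7 cm pots (sandy, pH 6.1, 1% organic matter) and cover them. Water from beneath, then incubate 24 h in a lit, temperature-controlled chamber. Spray the soil in a traveling tower, let it dry in shade, grow on 21 days, and weigh fresh biomass against controls.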

[2] = system: Alopecurus japonicus
How it was run: as §1

[3] = system: Alopecurus myosuroides
How it was run: as §1

[4] = system: Cyperus iria; conditions: read-out: Herbicidal activities (inhibition rate) Cyperus iria; for inhibition at 120 g/ha: 120 g a.i./ha; for inhibition at 60 g/ha: 60 g a.i./ha
How it was run: as §1

[5] = system: Digitaria sanguinalis; conditions: read-out: Herbicidal activities (inhibition rate) Digitaria sanguinalis; for inhibition at 120 g/ha: 120 g a.i./ha; for inhibition at 60 g/ha: 60 g a.i./ha
How it was run: as §1

[6] = system: Eclipta prostrata; conditions: read-out: Herbicidal activities (inhibition rate) Eclipta prostrata; for inhibition at 120 g/ha: 120 g a.i./ha; for inhibition at 60 g/ha: 60 g a.i./ha
How it was run: as §1

[7] = system: Eleusine indica
How it was run: as §1

[8] = system: Leptochloa chinensis
How it was run: as §1

[9] = system: Lolium multiflorum
How it was run: as §1

Row | Compound | inhibition at 120 g/ha [1] [%] | Herbicidal activity (inhibition rate class), Alopecurus japonicus ([2]; Dosage 240 g a.i./ha) | Herbicidal activity (inhibition rate class), Alopecurus myosuroides ([3]; Dosage 240 g a.i./ha) | inhibition at 120 g/ha [4] [%] | inhibition at 120 g/ha [5] [%] | inhibition at 120 g/ha [6] [%] | Herbicidal activity (inhibition rate class), Eleusine indica ([7]; Dosage 240 g a.i./ha) | Herbicidal activity (inhibition rate class), Leptochloa chinensis ([8]; Dosage 240 g a.i./ha) | Herbicidal activity (inhibition rate class), Lolium multiflorum ([9]; Dosage 240 g a.i./ha) | inhibition at 60 g/ha [1] [%] | Herbicidal activity (inhibition rate class), Alopecurus japonicus ([2]; Dosage 120 g a.i./ha) | Herbicidal activity (inhibition rate class), Alopecurus myosuroides ([3]; Dosage 120 g a.i./ha) | inhibition at 60 g/ha [4] [%] | inhibition at 60 g/ha [5] [%] | inhibition at 60 g/ha [6] [%] | Herbicidal activity (inhibition rate class), Eleusine indica ([7]; Dosage 120 g a.i./ha) | Herbicidal activity (inhibition rate class), Leptochloa chinensis ([8]; Dosage 120 g a.i./ha) | Herbicidal activity (inhibition rate class), Lolium multiflorum ([9]; Dosage 120 g a.i./ha)
1 | COC(=O)[C@@H]1C=C[C@H](NC(=O)C2(C)CC(c3cc(Cl)cc(OC(F)(F)F)c3)=NO2)C1 (stereo partly drawn) [I-486] | 80 to 100 | A (A indicates that the inhibition rate was greater than or equal to 80% to 100%) | A (A indicates that the inhibition rate was greater than or equal to 80% to 100%) | 80 to 100 | 60 to 80 | 80 to 100 | A (A indicates that the inhibition rate was greater than or equal to 80% to 100%) | A (A indicates that the inhibition rate was greater than or equal to 80% to 100%) | A (A indicates that the inhibition rate was greater than or equal to 80% to 100%) |  |  |  |  |  |  |  |  | 
2 | CSCCOC(=O)[C@@H]1C=C[C@H](NC(=O)C2(C)CC(c3cc(Cl)cc(OC(F)(F)F)c3)=NO2)C1 (stereo partly drawn) [I-487] | 80 to 100 | A (A indicates that the inhibition rate was greater than or equal to 80% to 100%) | A (A indicates that the inhibition rate was greater than or equal to 80% to 100%) | 80 to 100 | 60 to 80 | 80 to 100 | A (A indicates that the inhibition rate was greater than or equal to 80% to 100%) | A (A indicates that the inhibition rate was greater than or equal to 80% to 100%) | A (A indicates that the inhibition rate was greater than or equal to 80% to 100%) |  |  |  |  |  |  |  |  | 
3 | CC1(C(=O)N[C@H]2C=C[C@@H](C(=O)O)C2)CC(c2cc(F)cc(OC(F)(F)F)c2)=NO1 (stereo partly drawn) [I-488] | 80 to 100 | A (A indicates that the inhibition rate was greater than or equal to 80% to 100%) | A (A indicates that the inhibition rate was greater than or equal to 80% to 100%) | 80 to 100 | 60 to 80 | 80 to 100 | A (A indicates that the inhibition rate was greater than or equal to 80% to 100%) | A (A indicates that the inhibition rate was greater than or equal to 80% to 100%) | A (A indicates that the inhibition rate was greater than or equal to 80% to 100%) |  |  |  |  |  |  |  |  | 
4 | CSCCOC(=O)[C@@H]1C=C[C@H](NC(=O)C2(C)CC(c3cc(F)cc(OC(F)(F)F)c3)=NO2)C1 (stereo partly drawn) [I-490] | 80 to 100 | A (A indicates that the inhibition rate was greater than or equal to 80% to 100%) | A (A indicates that the inhibition rate was greater than or equal to 80% to 100%) | 80 to 100 | 80 to 100 | 80 to 100 | A (A indicates that the inhibition rate was greater than or equal to 80% to 100%) | A (A indicates that the inhibition rate was greater than or equal to 80% to 100%) | A (A indicates that the inhibition rate was greater than or equal to 80% to 100%) |  |  |  |  |  |  |  |  | 
5 | CC1(C(=O)N[C@H]2C=C[C@@H](C(=O)OCCS(C)(=O)=O)C2)CC(c2cc(F)cc(OC(F)(F)F)c2)=NO1 (stereo partly drawn) [I-492] | 80 to 100 | A (A indicates that the inhibition rate was greater than or equal to 80% to 100%) | A (A indicates that the inhibition rate was greater than or equal to 80% to 100%) | 60 to 80 | 80 to 100 | 80 to 100 | A (A indicates that the inhibition rate was greater than or equal to 80% to 100%) | A (A indicates that the inhibition rate was greater than or equal to 80% to 100%) | A (A indicates that the inhibition rate was greater than or equal to 80% to 100%) |  |  |  |  |  |  |  |  | 
6 | CC1(C(=O)N[C@H]2C=C[C@@H](C(=O)O)C2)CC(c2cc(F)cc(C(F)(F)F)c2)=NO1 (stereo partly drawn) [I-493] | 80 to 100 | A (A indicates that the inhibition rate was greater than or equal to 80% to 100%) | A (A indicates that the inhibition rate was greater than or equal to 80% to 100%) | 80 to 100 | 60 to 80 | 60 to 80 | A (A indicates that the inhibition rate was greater than or equal to 80% to 100%) | A (A indicates that the inhibition rate was greater than or equal to 80% to 100%) | A (A indicates that the inhibition rate was greater than or equal to 80% to 100%) |  |  |  |  |  |  |  |  | 
7 | COC(=O)[C@@H]1C=C[C@H](NC(=O)C2(C)CC(c3cc(F)cc(OC(F)F)c3)=NO2)C1 (stereo partly drawn) [I-505] | 80 to 100 | A (A indicates that the inhibition rate was greater than or equal to 80% to 100%) | A (A indicates that the inhibition rate was greater than or equal to 80% to 100%) | 80 to 100 | 80 to 100 | 80 to 100 | B (B indicates that the inhibition rate was greater than or equal to 60% to less than 80%) | A (A indicates that the inhibition rate was greater than or equal to 80% to 100%) | A (A indicates that the inhibition rate was greater than or equal to 80% to 100%) |  |  |  |  |  |  |  |  | 
8 | COC(=O)[C@@H]1C=C[C@H](NC(=O)C2(C)CC(c3cc(Cl)cc(C(F)(F)F)c3)=NO2)C1 (stereo partly drawn) [I-511] | 80 to 100 | A (A indicates that the inhibition rate was greater than or equal to 80% to 100%) | A (A indicates that the inhibition rate was greater than or equal to 80% to 100%) | 80 to 100 | 80 to 100 | 80 to 100 | A (A indicates that the inhibition rate was greater than or equal to 80% to 100%) | A (A indicates that the inhibition rate was greater than or equal to 80% to 100%) | A (A indicates that the inhibition rate was greater than or equal to 80% to 100%) |  |  |  |  |  |  |  |  | 
9 | O=C(O)[C@@H]1C=C[C@H](NC(=O)[C@@]2(C(F)(F)F)CC(c3cc(F)cc(C(F)(F)F)c3)=NO2)C1 [I-516] |  |  |  |  |  |  |  |  |  | 80 to 100 | A (A indicates that the inhibition rate was greater than or equal to 80% to 100%) | A (A indicates that the inhibition rate was greater than or equal to 80% to 100%) | 80 to 100 | 80 to 100 | 60 to 80 | A (A indicates that the inhibition rate was greater than or equal to 80% to 100%) | A (A indicates that the inhibition rate was greater than or equal to 80% to 100%) | A (A indicates that the inhibition rate was greater than or equal to 80% to 100%)
10 | C#C[C@@H](C)OC(=O)[C@@H]1C=C[C@H](NC(=O)[C@@]2(C(F)(F)F)CC(c3cc(F)cc(C(F)(F)F)c3)=NO2)C1 [I-521] |  |  |  |  |  |  |  |  |  | 80 to 100 | A (A indicates that the inhibition rate was greater than or equal to 80% to 100%) | A (A indicates that the inhibition rate was greater than or equal to 80% to 100%) | 80 to 100 | 80 to 100 | 80 to 100 | A (A indicates that the inhibition rate was greater than or equal to 80% to 100%) | A (A indicates that the inhibition rate was greater than or equal to 80% to 100%) | A (A indicates that the inhibition rate was greater than or equal to 80% to 100%)

From patent publication EP4722201A1, “3-PHENYLISOXAZOLINE-5-CARBOXAMIDE COMPOUND, AND PREPARATION METHOD THEREFOR, HERBICIDAL COMPOSITION THEREOF AND USE THEREOF” (Jiangsu Flag Chemical Industry Co., Ltd, priority 2023, dated 2024)
